Results from US12306535B2, “Photoacid generator for chemically amplified photoresists for deep ultra violet and extreme ultraviolet lithography” (International Business Machines Corporation, priority 2022, dated 2025).

Assay: not given
Conditions: relative to triphenylantimony and triphenylbismuth; cited from earlier work

Compound	mean lethal dose LD50
triphenyltin	one to two orders of magnitude lower

Assay: not given
Conditions: smaller than that of tris(trifluoromethylsulfonyl)methane; cited from earlier work

Compound	acid-dissociation constant
CC1(C)C2CCC1(CS(=O)(=O)O)C(=O)C2 (stereo not drawn) [camphorsulfonic anions]	about 18 orders of magnitude
p-toluenesulfonate [p-toluenesulfonate anions]	about 18 orders of magnitude

Assay: Acid-dissociation constant relative to tris(trifluoromethylsulfonyl)methane
Format: physicochemical
Conditions: compared with tris(trifluoromethylsulfonyl)methane

Compound	acid-dissociation constant of acids generated upon UV exposure
N#Cc1[b-]2c(C#N)c(C#N)c(C#N)c(C#N)c2c(C#N)c(C#N)c1C#N.c1ccc([S+](c2ccccc2)c2ccccc2)cc1 [17B, triphenylsulfonium 1,2,3,4,5,6,7,8-octacyanobenzo[a]borinine]	higher than that of tris(trifluoromethylsulfonyl)methane
N#Cc1[b-]2c(C#N)c(C#N)c(C#N)c(C#N)c2c(C#N)c(C#N)c1C#N.c1ccc([I+]c2ccccc2)cc1 [17D, diphenyliodonium 1,2,3,4,5,6,7,8-octacyanobenzo[a]borinine]	higher than that of tris(trifluoromethylsulfonyl)methane
N#Cc1[b-]2c(C#N)c(C#N)c(C#N)c(C#N)c2c(C#N)c(C#N)c1C#N.c1ccc([S+]2CCCC2)cc1 [17F, phenylthiolanium 1,2,3,4,5,6,7,8-octacyanobenzo[a]borinine]	higher than that of tris(trifluoromethylsulfonyl)methane
diphenyliodonium bis(1,2,2-tricyanoethen-1-yl)-(1,1,2,4,5,5-hexacyanopent-1,4-dien-3-yl)borane [17C]	higher than that of tris(trifluoromethylsulfonyl)methane
phenylthiolanium bis(1,2,2-tricyanoethen-1-yl)-(1,1,2,4,5,5-hexacyanopent-1,4-dien-3-yl)borane [17E]	higher than that of tris(trifluoromethylsulfonyl)methane
triphenylsulfonium bis(1,2,2-tricyanoethen-1-yl)-(1,1,2,4,5,5-hexacyanopent-1,4-dien-3-yl)borane [17A]	higher than that of tris(trifluoromethylsulfonyl)methane
